Test results published in US4740233A, “Substituted 1,2,4-triazolo[1,5-a]-pyrimidine-2-sulfonamides and compositions and methods of controlling undesired vegetation and suppressing the nitrification of ammonium nitrogen in soil” (The Dow Chemical Company, priority 1986, dated 1988).

Legend:
Test in all cases: Preemergent control of plant species
wild oats = assay type: in vivo; settings: Avena fatua, pre-emergence, 336 h; 0.25 lb/acre; read-out: percent preemergent control
Method: The seeds of various species of plants were planted in beds of good agricultural soil in a greenhouse. A number of compositions of the present invention, generally in the nature of an aqueous emulsion, were applied at rates listed in the table so as to deposit a predetermined amount of active ingredients uniformly throughout the surface of the bed. Another seed bed was treated only with water to serve as a control. After treatment the seed beds were maintained for two weeks under greenhouse conditions conducive for good plant growth and watered as necessary. Control refers to the reduction in growth compared to the observed results of the same untreated species.

jimsonweed = assay type: in vivo, Datura stramonium; settings: Datura stramonium, pre-emergence, 336 h; 0.25 lb/acre; read-out: percent preemergent control
Procedure, shortened: (§1)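 Seeds sown in agricultural soil in greenhouse beds, then aqueous-emulsion compositions applied uniformly to the bed surface at listed rates. Beds kept two weeks under greenhouse growth conditions with watering. Control expressed as growth reduction versus water-treated beds of the same species.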

annual morning glory = assay type: in vivo, Ipomoea spp.; settings: Ipomoea, pre-emergence, 336 h; 0.25 lb/acre; read-out: percent preemergent control
Procedure, shortened: as §1

yellow nutsedge = assay type: in vivo, Cyperus esculentus; settings: Cyperus, pre-emergence, 336 h; 0.25 lb/acre; read-out: percent preemergent control
Procedure, shortened: as §1

corn = assay type: in vivo, Zea mays; settings: Zea mays, pre-emergence, 336 h; 0.25 lb/acre; read-out: percent preemergent control
Procedure, shortened: as §1

johnson grass = assay type: in vivo, Sorghum halepense; settings: Sorghum halepense, pre-emergence, 336 h; 0.25 lb/acre; read-out: percent preemergent control
Procedure, shortened: as §1

cotton = assay type: in vivo, Gossypium spp.; settings: Gossypium hirsutum, pre-emergence, 336 h; 0.25 lb/acre; read-out: percent preemergent control
Procedure, shortened: as §1

rape = assay type: in vivo, Brassica napus; settings: Brassica napus, pre-emergence, 336 h; 0.25 lb/acre; read-out: percent preemergent control
Procedure, shortened: as §1

barnyardgrass = assay type: in vivo, Echinochloa crusgalli; settings: Echinochloa crus-galli, pre-emergence, 336 h; 0.25 lb/acre; read-out: percent preemergent control
Procedure, shortened: as §1

sugar beet = assay type: in vivo, Beta saccharifera; settings: Beta vulgaris, pre-emergence, 336 h; 0.25 lb/acre; read-out: percent preemergent control
Procedure, shortened: as §1

velvetleaf = assay type: in vivo, Abutilon theophrasti; settings: Abutilon theophrasti, pre-emergence, 336 h; 0.25 lb/acre; read-out: percent preemergent control
Procedure, shortened: as §1

wheat = assay type: in vivo, Triticum aestivum; settings: Triticum aestivum, pre-emergence, 336 h; 0.25 lb/acre; read-out: percent preemergent control
Procedure, shortened: as §1

yellow foxtail = assay type: in vivo, Setaria lutescens; settings: Setaria, pre-emergence, 336 h; 0.25 lb/acre; read-out: percent preemergent control
Procedure, shortened: as §1

sorghum = assay type: in vivo, Sorghum vulgare; settings: Sorghum, pre-emergence, 336 h; 0.25 lb/acre; read-out: percent preemergent control
Procedure, shortened: as §1

rice = assay type: in vivo, Oryza sativa; settings: Oryza sativa, pre-emergence, 336 h; 0.25 lb/acre; read-out: percent preemergent control
Procedure, shortened: as §1

soybean = assay type: in vivo, Glycine max.; settings: Glycine max, pre-emergence, 336 h; 0.25 lb/acre; read-out: percent preemergent control
Procedure, shortened: as §1

Structure (SMILES)	pest or weed control at 280.212 g/ha (wild oats)	pest or weed control at 280.212 g/ha (jimsonweed)	pest or weed control at 280.212 g/ha (annual morning glory)	pest or weed control at 280.212 g/ha (yellow nutsedge)	plant injury at 280.212 g/ha (corn)	pest or weed control at 280.212 g/ha (johnson grass)	plant injury at 280.212 g/ha (cotton)	plant injury at 280.212 g/ha (rape)	pest or weed control at 280.212 g/ha (barnyardgrass)	plant injury at 280.212 g/ha (sugar beet)	pest or weed control at 280.212 g/ha (velvetleaf)	plant injury at 280.212 g/ha (wheat)	pest or weed control at 280.212 g/ha (yellow foxtail)	plant injury at 280.212 g/ha (sorghum)	plant injury at 280.212 g/ha (rice)	plant injury at 280.212 g/ha (soybean)
Cc1cnc2nc(S(=O)(=O)Nc3c(Cl)ccc(C)c3Cl)nn2c1 [Compound 194]	0%	95%	90%	95%	0%	0%	90%	100%	0%	100%	90%	0%	0%	30%	0%	70%
CCOCCOC(=O)c1cccc(C)c1NS(=O)(=O)c1nc2nc(C)cc(C)n2n1 [Compound 72]	90%	100%	10%	100%	90%	50%	40%	100%	30%	90%	60%	90%	50%	80%	70%	90%
Cc1ccn2nc(S(=O)(=O)N(C(=O)c3ccccc3)c3c(F)cccc3F)nc2n1 [Compound 290]	70%	100%	100%	80%	90%	100%	100%	100%	100%	100%	100%	95%	100%	100%	100%	70%
COC(=O)c1ccc(C)c(NS(=O)(=O)c2nc3nc(C)cc(C)n3n2)c1Br [Compound 86, methyl 3-amino-2-bromo-4-methyl-N-(5,7-dimethyl-1,2,4-triazolo[1,5-a]pyrimidine-2-sulfonyl)benzoate]	0%	100%	0%	0%	0%	0%	0%	100%	0%	100%	0%	0%	0%	0%	0%	20%
CCOC(=O)N(c1c(Cl)cccc1Cl)S(=O)(=O)c1nc2nc(C)ccn2n1 [Compound 272]	0%	90%	40%	100%	0%	40%	80%	100%	60%	100%	100%	0%	90%	40%	30%	0%
